Source: patent US11149035B2, “Chemical compounds as H—PGDS inhibitors” (GlaxoSmithKline Intellectual Property Development Limited, priority 2017, dated 2021)

Molecular target: T1, haematopoietic prostaglandin D synthase (H-PGDS) (Homo sapiens, UniProt O60760)
T1 construct: Full length human H-PGDS cDNA (Invitrogen Ultimate ORF IOH13026) was amplified by PCR; 6-His (N); TEV protease cleavage site (N); made in house; host or cells: E. coli BL21 (DE3*)
Experiment: H-PGDS RapidFire high throughput mass spectrometry assay (conversion of PGH2 to PGD2)
Type: biochemical
Conditions: 10 nM H-PGDS, PGH2 formed in situ by COX-2 from arachidonic acid; four parameter curve fit; read-out: Potency Range (mean pIC50) (converted)
In short: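 His-tagged full-length human H-PGDS from E. coli converts PGH2, generated in situ at ~10 μM from arachidonic acid by FLAG-tagged human COX-2 from Sf9 cells. RapidFire SPE-triple quadrupole MS measures PGD2 against PGF2α as substrate surrogate; percent conversion is calculated.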

T1 sequence (O60760 whole entry): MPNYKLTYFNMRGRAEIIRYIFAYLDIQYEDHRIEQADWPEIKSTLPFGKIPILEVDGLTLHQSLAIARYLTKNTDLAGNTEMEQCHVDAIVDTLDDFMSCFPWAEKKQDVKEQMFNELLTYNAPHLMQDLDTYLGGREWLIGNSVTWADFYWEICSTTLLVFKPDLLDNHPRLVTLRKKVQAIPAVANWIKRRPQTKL

Question: `CC1CCN1c1cc2ncc(C(=O)N[C@H]3CC[C@H](C(C)(C)O)CC3)cc2cn1` (mixture of isomers) [Example 11, N-(trans-4-(2-Hydroxypropan-2-yl)cyclohexyl)-7-(2-methylazetidin-1-yl)-1,6-naphthyridine-3-carboxamide] was tested. Which IC50 did it give?
Answer: 10 to 79.4 nM

Question: With `C[C@]1(O)CC[C@H](NC(=O)c2cnc3nc(C4CC4)c(Cl)cc3c2)CC1` [Example 74, 6-Chloro-7-cyclopropyl-N-((1r,4r)-4-hydroxy-4-methylcyclohexyl)-1,8-naphthyridine-3-carboxamide ethyl acetate solvate] as the compound, how does the IC50 read?
Answer: < 10 nM

Question: `CC(C)(O)[C@H]1C[C@H](NC(=O)c2cnc3nc(C4CC4)ccc3c2)C1` [Example 47, 7-Cyclopropyl-N-(trans-3-(2-hydroxypropan-2-yl)cyclobutyl)-1,8-naphthyridine-3-carboxamide] was tested. Which IC50 did it give?
Answer: 10 to 79.4 nM

Question: `O=C(N[C@H]1CCNC1=O)c1cnc2nc(N3CCC3)ccc2c1` [Example 19, (S)-7-(Azetidin-1-yl)-N-(2-oxopyrrolidin-3-yl)-1,8-naphthyridine-3-carboxamide] was tested. Which IC50 did it give?
Answer: 10 to 79.4 nM

Question: With `COc1ccc2cc(C(=O)N[C@H]3CC[C@H](C(C)(C)O)CC3)cnc2n1` [Example 50, N-(trans-4-(2-Hydroxypropan-2-yl)cyclohexyl)-7-methoxy-1,8-naphthyridine-3-carboxamide] as the compound, how does the IC50 read?
Answer: 10 to 79.4 nM

Question: With `O=C(N[C@H]1C[C@H](N[C@H](CO)C(F)(F)F)C1)c1cnc2cc(C3CC3)ncc2c1` [Example 43, 7-Cyclopropyl-N-(trans-3-(((R)-1,1,1-trifluoro-3-hydroxypropan-2-yl)amino)cyclobutyl)-1,6-naphthyridine-3-carboxamide] as the compound, how does the IC50 read?
Answer: 100 to 1000 nM

Question: `C[C@@H]1CNC(=O)[C@H]1NC(=O)c1cnc2nc(N3CC[C@@H]3C)c(Cl)cc2c1` [Example 67, 6-Chloro-N-((3S,4R)-4-methyl-2-oxopyrrolidin-3-yl)-7-((S)-2-methylazetidin-1-yl)-1,8-naphthyridine-3-carboxamide] was tested. Which IC50 did it give?
Answer: < 10 nM

Question: With `CCOc1ccc2cc(C(=O)N[C@H]3CC[C@H](C(C)(C)O)CC3)cnc2n1` [Example 56, 7-Ethoxy-N-(trans-4-(2-hydroxypropan-2-yl)cyclohexyl)-1,8-naphthyridine-3-carboxamide] as the compound, how does the IC50 read?
Answer: 10 to 79.4 nM

Question: How did the IC50 turn out when `C[C@H]1CCN1c1nc2ncc(C(=O)N[C@H]3C[C@](O)(C(F)(F)F)C3)cc2cc1Cl` [Example 66, 6-Chloro-N-((1s,3R)-3-hydroxy-3-(trifluoromethyl)cyclobutyl)-7-((S)-2-methylazetidin-1-yl)-1,8-naphthyridine-3-carboxamide] was run?
Answer: < 10 nM

Question: How did the IC50 turn out when `CC(C)(O)[C@H]1CC[C@H](NC(=O)c2cnc3ncccc3c2)CC1` [Example 2, N-(trans-4-(2-Hydroxypropan-2-yl)cyclohexyl)-1,8-naphthyridine-3-carboxamide] was run?
Answer: 1260 to 10000 nM

Question: How did the IC50 turn out when `COc1cc2ncc(C(=O)N[C@H]3CC[C@H](C(C)(C)O)CC3)cc2cn1` [Example 51, N-(trans-4-(2-Hydroxypropan-2-yl)cyclohexyl)-7-methoxy-1,6-naphthyridine-3-carboxamide] was run?
Answer: 10 to 79.4 nM

Question: For `CC(C)(O)[C@H]1C[C@H](NC(=O)c2cnc3cc(C4CC4)ncc3c2)C1` [Example 32, 7-Cyclopropyl-N-(trans-3-(2-hydroxypropan-2-yl)cyclobutyl)-1,6-naphthyridine-3-carboxamide], which IC50 is on record?
Answer: 10 to 79.4 nM

Question: For `CC(C)(O)[C@H]1CC[C@H](NC(=O)c2cnc3ccncc3c2)CC1` [Example 1, N-(trans-4-(2-Hydroxypropan-2-yl)cyclohexyl)-1,6-naphthyridine-3-carboxamide], which IC50 is on record?
Answer: 1260 to 10000 nM

Question: Which IC50 does the source give for `CC(C)(O)[C@H]1CC[C@H](NC(=O)c2cnc3nc(N4CCC4)c(Cl)cc3c2)CC1` [Example 25, 7-(Azetidin-1-yl)-6-chloro-N-(trans-4-(2-hydroxypropan-2-yl)cyclohexyl)-1,8-naphthyridine-3-carboxamide] here?
Answer: < 10 nM

Question: Which IC50 does the source give for `O=C(N[C@H]1C[C@](O)(C(F)(F)F)C1)c1cnc2cc(C3CC3)ncc2c1` [Example 40, 7-Cyclopropyl-N-((1s,3s)-3-hydroxy-3-(trifluoromethyl)cyclobutyl)-1,6-naphthyridine-3-carboxamide] here?
Answer: 100 to 1000 nM

Question: `CC(N[C@H]1CC[C@H](NC(=O)c2cnc3cc(C4CC4)ncc3c2)CC1)C(F)F` (mixture of isomers) [Example 39, 7-cyclopropyl-N-(trans-4-((1,1-difluoropropan-2-yl)amino)cyclohexyl)-1,6-naphthyridine-3-carboxamide] was tested. Which IC50 did it give?
Answer: 10 to 79.4 nM

Question: For `C[C@H]1CCN1c1nc2ncc(C(=O)N[C@H]3CC[C@H](C(C)(C)O)CC3)cc2cc1Cl` [Example 58, 6-Chloro-N-(trans-4-(2-hydroxypropan-2-yl)cyclohexyl)-7-((S)-2-methylazetidin-1-yl)-1,8-naphthyridine-3-carboxamide], which IC50 is on record?
Answer: < 10 nM

Question: How did the IC50 turn out when `C[C@H]1CCN1c1cc2ncc(C(=O)N[C@H]3C[C@@](C)(O)C3)cc2cn1` [Example 23, N-((1s,3R)-3-Hydroxy-3-methylcyclobutyl)-7-((S)-2-methylazetidin-1-yl)-1,6-naphthyridine-3-carboxamide] was run?
Answer: 100 to 1000 nM

Question: With `C[C@]1(O)CC[C@H](NC(=O)c2cnc3nc(C4CC4)ccc3c2)CC1` [Example 48, 7-Cyclopropyl-N-((1r,4r)-4-hydroxy-4-methylcyclohexyl)-1,8-naphthyridine-3-carboxamide] as the compound, how does the IC50 read?
Answer: 10 to 79.4 nM

Question: For `O=C(N[C@H]1C[C@@H](N[C@H](CO)C(F)(F)F)C1)c1cnc2nc(C3CC3)ccc2c1` [Example 68, 7-Cyclopropyl-N-(cis-3-(((R)-1,1,1-trifluoro-3-hydroxypropan-2-yl)amino)cyclobutyl)-1,8-naphthyridine-3-carboxamide], which IC50 is on record?
Answer: 100 to 1000 nM

Question: For `C[C@]1(O)C[C@@H](NC(=O)c2cnc3cc(N4CCC4)ncc3c2)C1` [Example 15, 7-(Azetidin-1-yl)-N-((1s,3s)-3-hydroxy-3-methylcyclobutyl)-1,6-naphthyridine-3-carboxamide], which IC50 is on record?
Answer: 10 to 79.4 nM

Question: With `COc1ncc2cc(C(=O)N[C@H]3CC[C@H](C(C)(C)O)CC3)cnc2n1` [Example 80, N-((trans)-4-(2-Hydroxypropan-2-yl)cyclohexyl)-2-methoxypyrido[2,3-d]pyrimidine-6-carboxamide] as the compound, how does the IC50 read?
Answer: 100 to 1000 nM

Question: `C[C@H]1CCN1c1cc2ncc(C(=O)N[C@H]3C[C@H](C(C)(C)O)C3)cc2cn1` [Example 26, N-(trans-3-(2-Hydroxypropan-2-yl)cyclobutyl)-7-((S)-2-methylazetidin-1-yl)-1,6-naphthyridine-3-carboxamide] was tested. Which IC50 did it give?
Answer: 10 to 79.4 nM

Question: How did the IC50 turn out when `O=C(N[C@H]1C[C@](O)(C(F)(F)F)C1)c1cnc2nc(C3CC3)ccc2c1` [Example 53, 7-cyclopropyl-N-((1s,3s)-3-hydroxy-3-(trifluoromethyl)cyclobutyl)-1,8-naphthyridine-3-carboxamide] was run?
Answer: 100 to 1000 nM
